Measurements reported in ChEMBL document CHEMBL4725403, “Improved design of peptides exhibiting angiogenic activities for clinical applications” (Bioorg Med Chem, 2020).
Activity calls are given as the source filed them. No cut-off for these calls is given here. Where a SMILES comes first, the peptide text is derived from it. Bridges are numbered along the chain shown (N, C = ends). [ ]: non-standard residue; d: D form. AEEA = NCCOCCOCC(=O)O

Legend:
HUVEC [1] = test: Induction of angiogenesis in HUVEC assessed as tube formation at 2 ug/ml after 2 hrs by inverted microscopy; format: functional; conditions: Homo sapiens, dose 2.0 µg/ml
[2] = Stability of compound in human serum assessed as parent compound remaining after 6 hrs by HPLC-MS; format: ADME, cell-free; conditions: for Stabilty: 6 h
HUVEC [3] = test: Induction of angiogenesis in HUVEC assessed as tube formation at 2 ug/ml after 18 hrs by inverted microscopy; format: functional; conditions: Homo sapiens, dose 2.0 µg/ml
[4] = Stability of compound in HUVEC cell lysates assessed as parent compound remaining after 6 hrs by HPLC-MS; format: ADME, subcellular; conditions: human; for Stabilty: huvec, 6 h
HUVEC [5] = test: Induction of angiogenesis in HUVEC assessed as tube formation at 2 ug/ml upto 24 hrs by inverted microscopy; format: functional; conditions: Homo sapiens, dose 2.0 µg/ml

For CC(C)C[C@@H]1NC(=O)CNC(=O)[C@H](Cc2ccccc2)NC(=O)[C@H](C(C)C)NC(=O)[C@H](C(C)C)NC(=O)[C@H](CO)NC(=O)COCCOCCNC(=O)[C@H](N)CSSC[C@H](C(N)=O)NC(=O)CNC(=O)[C@H](CCCNC(=N)N)NC1=O, the Activity (HUVEC [1]) was “Active”, the Stabilty [2] was “Stable” and the Activity (HUVEC [3]) was “Active”. The Stabilty [4] was “Stable”.

With CC(C)C[C@@H]1NC(=O)CNC(=O)[C@H](Cc2ccccc2)NC(=O)[C@H](C(C)C)NC(=O)[C@H](C(C)C)NC(=O)[C@H](CO)NC(=O)COCCOCCNC(=O)[C@@H](N)CSSC[C@@H](C(N)=O)NC(=O)CNC(=O)[C@H](CCCNC(=N)N)NC1=O the Activity (HUVEC [1]) was “Active”, the Stabilty [2] was “Stable” and the Activity (HUVEC [3]) was “Active”. The Activity (HUVEC [5]) was “Active” and the Stabilty [4] was “Stable”.

For CC(C)C[C@H](NC(=O)CNC(=O)[C@H](Cc1ccccc1)NC(=O)[C@@H](NC(=O)[C@@H](NC(=O)[C@H](CO)NC(=O)COCCOCCN)C(C)C)C(C)C)C(=O)N[C@@H](CCCNC(=N)N)C(N)=O (H-[AEEA]SVVFGLR-NH2), the Stabilty [4] was “Stable”.

For CC(C)C[C@@H]1NC(=O)CNC(=O)[C@H](Cc2ccccc2)NC(=O)[C@H](C(C)C)NC(=O)[C@H](C(C)C)NC(=O)[C@H](CO)NC(=O)COCCOCCNC(=O)CC[C@@H](C(N)=O)NC(=O)[C@H](CCCNC(=N)N)NC1=O ([AEEA]SVVFGLRE-NH2; lactam N-9), the Activity (HUVEC [1]) was “Active”, the remaining at 6 h ([2]; read-out: Stabilty) was 80% and the Activity (HUVEC [3]) was “Active”. The Stabilty [4] was “Unstable”.

With H-SVVFGLR-NH2 the Activity (HUVEC [1]) was “Active”, the Stabilty [2] was “Unstable” and the Activity (HUVEC [3]) was “Active”. The remaining at 6 h ([4]; HUVEC cell lysates, read-out: Stabilty) was 50%.
